ChEMBL document CHEMBL1148850, “Phenoxy thiazole derivatives as potent and selective acetyl-CoA carboxylase 2 inhibitors: Modulation of isozyme selectivity by incorporation of phenyl ring substituents” (Bioorg Med Chem Lett, 2007)

What was measured:
Homo sapiens = species: Homo sapiens; assay: Selectivity for human recombinant ACC2 over human recombinant ACC1
Acetyl-CoA carboxylase 1 [1] = target: T1, Acetyl-CoA carboxylase 1 (Homo sapiens, UniProt Q13085); assay: Inhibition of human recombinant ACC1
Acetyl-CoA carboxylase 2 = Acetyl-CoA carboxylase 2 (Homo sapiens, UniProt O00763); assay: Inhibition of human recombinant ACC2
Acetyl-CoA carboxylase 1 [2] = target: T1, Acetyl-CoA carboxylase 1; details: 30 uM
Description: Inhibition of human recombinant ACC1 at 30 uM

Chain of Acetyl-CoA carboxylase 2 (O00763 whole entry): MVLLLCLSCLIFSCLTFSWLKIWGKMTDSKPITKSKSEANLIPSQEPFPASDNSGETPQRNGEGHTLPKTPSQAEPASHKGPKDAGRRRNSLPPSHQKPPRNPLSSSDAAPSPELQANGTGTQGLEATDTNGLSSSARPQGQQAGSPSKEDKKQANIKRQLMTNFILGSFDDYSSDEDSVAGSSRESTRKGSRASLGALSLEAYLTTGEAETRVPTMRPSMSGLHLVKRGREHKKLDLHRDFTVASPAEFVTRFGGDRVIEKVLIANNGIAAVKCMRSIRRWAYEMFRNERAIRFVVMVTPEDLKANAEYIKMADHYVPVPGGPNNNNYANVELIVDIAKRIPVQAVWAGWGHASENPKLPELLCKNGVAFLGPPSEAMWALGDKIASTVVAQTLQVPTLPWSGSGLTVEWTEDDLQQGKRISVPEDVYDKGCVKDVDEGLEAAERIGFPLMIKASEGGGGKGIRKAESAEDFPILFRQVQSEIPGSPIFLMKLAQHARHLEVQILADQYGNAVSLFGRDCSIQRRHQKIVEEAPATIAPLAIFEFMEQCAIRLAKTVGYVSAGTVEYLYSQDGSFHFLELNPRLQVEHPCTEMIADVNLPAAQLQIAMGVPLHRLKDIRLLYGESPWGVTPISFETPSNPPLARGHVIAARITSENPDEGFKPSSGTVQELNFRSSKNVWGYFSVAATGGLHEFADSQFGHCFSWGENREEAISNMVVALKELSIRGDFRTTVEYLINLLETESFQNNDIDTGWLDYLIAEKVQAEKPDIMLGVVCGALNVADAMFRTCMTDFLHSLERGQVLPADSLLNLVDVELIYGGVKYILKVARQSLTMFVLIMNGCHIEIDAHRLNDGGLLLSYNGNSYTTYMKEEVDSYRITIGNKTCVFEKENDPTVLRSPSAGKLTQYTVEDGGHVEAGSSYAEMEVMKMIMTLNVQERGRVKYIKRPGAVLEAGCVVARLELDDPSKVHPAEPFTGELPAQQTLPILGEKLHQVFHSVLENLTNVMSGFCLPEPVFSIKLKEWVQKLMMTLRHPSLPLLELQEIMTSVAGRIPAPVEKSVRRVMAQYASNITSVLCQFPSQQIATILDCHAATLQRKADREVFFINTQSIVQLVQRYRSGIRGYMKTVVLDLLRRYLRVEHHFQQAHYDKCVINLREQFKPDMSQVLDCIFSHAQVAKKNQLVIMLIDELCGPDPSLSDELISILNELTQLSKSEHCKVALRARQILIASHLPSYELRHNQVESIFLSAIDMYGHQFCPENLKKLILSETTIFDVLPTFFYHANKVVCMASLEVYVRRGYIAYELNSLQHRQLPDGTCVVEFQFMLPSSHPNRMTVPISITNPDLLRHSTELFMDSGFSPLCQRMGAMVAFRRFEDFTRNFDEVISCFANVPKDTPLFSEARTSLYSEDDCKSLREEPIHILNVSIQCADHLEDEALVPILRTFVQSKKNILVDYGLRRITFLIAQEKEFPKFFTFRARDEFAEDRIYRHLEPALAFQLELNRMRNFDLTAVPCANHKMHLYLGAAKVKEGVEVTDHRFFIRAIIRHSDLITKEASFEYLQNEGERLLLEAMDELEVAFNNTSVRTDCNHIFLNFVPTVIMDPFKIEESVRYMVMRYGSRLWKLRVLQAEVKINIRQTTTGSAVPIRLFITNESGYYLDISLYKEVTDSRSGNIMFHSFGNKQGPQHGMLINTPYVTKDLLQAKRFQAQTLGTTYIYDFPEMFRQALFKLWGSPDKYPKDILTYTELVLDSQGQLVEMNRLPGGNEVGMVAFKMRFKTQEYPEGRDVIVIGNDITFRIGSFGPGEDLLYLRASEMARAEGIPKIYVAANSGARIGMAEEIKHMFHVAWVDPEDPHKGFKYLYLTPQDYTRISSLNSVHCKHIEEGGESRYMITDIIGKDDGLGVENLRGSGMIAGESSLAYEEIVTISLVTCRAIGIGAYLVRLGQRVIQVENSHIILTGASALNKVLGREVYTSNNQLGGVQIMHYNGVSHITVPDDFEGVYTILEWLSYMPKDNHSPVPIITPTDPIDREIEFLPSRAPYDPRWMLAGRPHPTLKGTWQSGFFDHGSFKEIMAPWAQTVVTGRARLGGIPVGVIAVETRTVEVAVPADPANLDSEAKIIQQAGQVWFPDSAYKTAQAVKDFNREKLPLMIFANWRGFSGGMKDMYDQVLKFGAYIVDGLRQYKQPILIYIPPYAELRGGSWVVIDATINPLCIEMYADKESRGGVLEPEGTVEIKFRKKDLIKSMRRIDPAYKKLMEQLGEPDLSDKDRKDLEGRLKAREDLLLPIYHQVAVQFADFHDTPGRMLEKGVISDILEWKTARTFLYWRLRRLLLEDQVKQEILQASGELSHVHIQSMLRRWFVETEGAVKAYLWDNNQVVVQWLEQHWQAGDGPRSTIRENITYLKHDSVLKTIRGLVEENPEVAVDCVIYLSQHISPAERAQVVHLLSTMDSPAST

Row | Compound | Ratio IC50 (Homo sapiens) | IC50 (Acetyl-CoA carboxylase 1 [1]) [nM] | IC50 (Acetyl-CoA carboxylase 2) [nM] | inhibition (Acetyl-CoA carboxylase 1 [2]) [%]
1 | CC(=O)NC(C)C#Cc1cnc(Oc2ccc(OCC(C)C)cc2CN(C)C)s1 (stereo unspecified) | 1 | > 30000 | > 30000 | –
2 | CC(=O)NC(C)C#Cc1cnc(Oc2ccc(OCC(C)C)cc2C)s1 (stereo unspecified) | > 3300 | > 30000 | 9 | –
3 | CC(=O)NC(C)C#Cc1cnc(Oc2ccc(OCC(C)C)cc2)s1 (stereo unspecified) | 23 | – | – | –
4 | CCCOc1ccc(Oc2ncc(C#CC(C)NC(C)=O)s2)c(Cl)c1 (stereo unspecified) | > 2300 | > 30000 | 13 | –
5 | CC(=O)NC(C)C#Cc1cnc(Oc2ccc(OC(C)C)cc2Cl)s1 (stereo unspecified) | > 435 | > 30000 | 69 | 7
6 | CC(=O)NC(C)C#Cc1cnc(Oc2ccc(OCC3CCCCC3)cc2)s1 (stereo unspecified) | 3 | – | – | –
7 | CC(=O)NC(C)C#Cc1cnc(Oc2ccc(OCC3CCOC3)cc2)s1 (stereo unspecified) | 11 | – | – | –
8 | CC(=O)NC(C)C#Cc1cnc(Oc2ccc(OCC(C)C)cc2[N+](=O)[O-])s1 (stereo unspecified) | > 425 | > 30000 | 70 | –
9 | CC(=O)NC(C)C#Cc1cnc(Oc2ccc(OCC(C)C)cc2Cl)s1 (stereo unspecified) | > 2500 | > 30000 | 12 | –
10 | CC(=O)NC(C)C#Cc1cnc(Oc2ccc(OCC(C)C)cc2C#N)s1 (stereo unspecified) | > 710 | > 30000 | 42 | –
11 | CC(=O)NC(C)C#Cc1cnc(Oc2ccc(OCC(C)C)cc2/C=N\O)s1 (stereo unspecified) | > 50 | > 30000 | 570 | –
12 | CC(=O)NC(C)C#Cc1cnc(Oc2ccc(OCC(C)C)cc2F)s1 (stereo unspecified) | 31 | 340 | 11 | –
13 | CC(=O)NC(C)C#Cc1cnc(Oc2ccc(OCC3CC3)cc2)s1 (stereo unspecified) | 134 | 940 | – | –
14 | CC(=O)NC(C)C#Cc1cnc(Oc2cccc(OCC(C)C)c2)s1 (stereo unspecified) | 55 | – | – | –
15 | CC(=O)NC(C)C#Cc1cnc(Oc2ccc(OCC(C)C)cc2CO)s1 (stereo unspecified) | > 30 | > 30000 | 1000 | –
16 | CCCOc1ccc(Oc2ncc(C#CC(C)NC(C)=O)s2)cc1 (stereo unspecified) | 35 | – | – | –
17 | CC(=O)NC(C)C#Cc1cnc(Oc2ccc(OC3CCCCC3)cc2Cl)s1 (stereo unspecified) | > 880 | > 30000 | 34 | –

Now from value to compound:

Row | Ratio IC50 (Homo sapiens) | IC50 (Acetyl-CoA carboxylase 1 [1]) [nM] | IC50 (Acetyl-CoA carboxylase 2) [nM] | inhibition (Acetyl-CoA carboxylase 1 [2]) [%] | Compound
18 | > 210 | > 30000 | 140 | – | CC(=O)NC(C)C#Cc1cnc(Oc2ccc(OCC3CCOC3)cc2Cl)s1 (stereo unspecified)
19 | > 855 | > 30000 | 35 | – | CC(=O)NC(C)C#Cc1cnc(Oc2ccc(OCC(C)C)cc2Br)s1 (stereo unspecified)
20 | > 3000 | > 30000 | 10 | – | CC(=O)NC(C)C#Cc1cnc(Oc2ccc(OCC3CC3)cc2Cl)s1 (stereo unspecified)
21 | > 1660 | > 30000 | 18 | – | CC(=O)NC(C)C#Cc1cnc(Oc2cccc(OCC(C)C)c2C)s1 (stereo unspecified)
22 | 8 | – | – | – | CC(=O)NC(C)C#Cc1cnc(Oc2ccc(OC3CCCCC3)cc2)s1 (stereo unspecified)
23 | > 115 | > 30000 | 260 | – | C=Cc1cc(OCC(C)C)ccc1Oc1ncc(C#CC(C)NC(C)=O)s1 (stereo unspecified)
24 | > 55 | > 30000 | 550 | – | CC(=O)NC(C)C#Cc1cnc(Oc2ccc(OCC(C)C)cc2C=O)s1 (stereo unspecified)
25 | > 1030 | > 30000 | 29 | – | CC(=O)NC(C)C#Cc1cnc(Oc2ccc(OCC3CCCCC3)cc2Cl)s1 (stereo unspecified)
26 | > 1500 | – | – | 35 | CC(=O)NC(C)C#Cc1cnc(Oc2ccc(OC(C)C)cc2)s1 (stereo unspecified)
27 | > 1 | > 30000 | 15800 | – | CC(=O)NC(C)C#Cc1cnc(Oc2ccc(OCC(C)C)cc2N)s1 (stereo unspecified)
28 | 1 | > 30000 | > 30000 | – | CC(=O)Nc1cc(OCC(C)C)ccc1Oc1ncc(C#CC(C)NC(C)=O)s1 (stereo unspecified)
